{"source": "patent US6884418B1", "about": "“Use of ligand-mimicking agents and anti-neoplastic drugs in cancer therapy” (Berlex Laboratories, Inc., priority 1989, dated 2005)", "key": {"SKBR3 cells [1]": {"test_system": "SKBR3 cells", "assay": "MTT assay, SKBR3 cells", "type": "cell-based, human", "procedure": "The MTT assay is generally used to assess cellular viability as a function of mitochondrial activity. The assay was used to examine effects of cisplatin with and without the c-erbB-2 monoclonal antibodies and was carried out as follows:\nMTT was added for 4 hours and the crystals dissolved with isopropanol/0.04N HCI/0.3% SDS."}, "SKBR3 cells [2]": {"test_system": "SKBR3 cells", "assay": "Soft agar clonogenic assay, SKBR3", "type": "cell-based, human", "conditions": "10 ng/ml cisplatin alone", "procedure": "The effects of TAb 250 alone and in combination with cisplatin (CDDP) on growth of human tumor cells in soft agar was assessed. SKOV3 (6,000 cells per ml) or SKBR3 (12,000 cells per ml) were incubated in assay medium (DMEM:F12, University of California at San Francisco Cell Culture Facility), 10% dialyzed FBS 0.1 mM nonessential amino acids in solution obtained from Gibco, 1 mM sodium pyruvate and 10 mM HEPES) for 30 minutes at 37° C. with 1 or 10 μg/ml TAb 250. CDDP at concentrations of either 10 ng/ml for SKBR3 cells and 100 ng/ml for SKOV3 cells was then added and the incubation continued for 1.5 hours at 37° C. An equal volume of assay medium containing 0.8% Sea Plaque agarose and appropriate concentrations of TAb 250 and CDDP were combined with the cell mixture. Triplicate 1 ml aliquots were dispensed onto base layers of 0.8% agarose in assay medium containing the appropriate amounts of TAb 250, CDDP or both, in 35 mm dishes. After 14 days at 37° C./5% CO2 in a humidified chamber, viable colonies were stained for 24 hours with Nitro Blue tetrazolium dye (Sigma, 500 μg in 1 ml PBS). Stained colonies greater than 60 μ were scored positive using a FAS III Image Analysis System (Bausch and Lomb, Rochester, N.Y.). The data are expressed as a percentage of untreated control colonies formed. In control dishes, SKOV3 and SKBR3 cells formed 859+/−16 and 1107+/−72 colonies, respectively. […]"}}, "data": [{"smiles": "N.N.O=C([O-])C1(C(=O)[O-])CCC1.[Pt+2]", "note": "[carboplatin, cis-diammine-1,1-cyclobutane dicarboxylate platinum]", "values": [{"measurement": "cell proliferation", "setting": "SKBR3 cells [1]; 16 μg of carboplatin alone", "result": "63 % of control"}, {"measurement": "synergistic response of the drug combined with TAb 250", "setting": "SKBR3 cells [1]; MTT assay, carboplatin 16 μg, melphalan 20 μg", "result": "synergistic effects"}]}, {"smiles": "N.N.[Cl][Pt][Cl]", "note": "[cisplatin, cis-diamminedichloroplatinum]", "values": [{"measurement": "cell growth", "setting": "SKBR3 cells [1]; 1.0 μg of cisplatin alone", "result": "65 % of control"}, {"measurement": "toxicity to the cells", "setting": "SKBR3 cells [1]; 3.0 μg of cisplatin alone", "result": "highly toxic"}, {"measurement": "colony formation in soft agar", "setting": "SKBR3 cells [2]", "result": "did not inhibit colony formation"}]}, {"smiles": "N[C@@H](Cc1ccc(N(CCCl)CCCl)cc1)C(=O)O", "note": "[melphalan, 4-[bis(2-chloroethyl)amino] L-phenylalanine]", "values": [{"measurement": "proliferation", "setting": "SKBR3 cells [1]; 20 μg of melphalan alone", "result": "70 % of control"}]}]}
